From patent publication US7807185B2, “Methods of inhibiting growth of bacteria, yeast, fungus, and virus with Pseudomonas lindbergii and Bacillus coagulans extracellular products” (Ganeden Biotech, Incorporated, priority 1997, dated 2010) come the findings set out here.

Assay type in all cases: cell-based
Holding throughout (conditions): 18 hr at 30° C.

Assay [1] concerns various species of the fungus Trichophyton. The assay can be described thus: in vitro zone of inhibition assay on potato-dextrose plates, Trichophyton. The protocol: In the assay, potato-dextrose plates (DIFCO®, Detroit, Mich.) were prepared using standard procedures and were inoculated individually with a confluent bed (about 1.7×10^6) of various species of the fungus Trichophyton. The tested fungal strains of Trichophyton species (available from the American Type Culture Collection (ATCC; 10801 University Boulevard, Manassas, Va. 20110-2209)) and their ATCC accession numbers, as well as the results of in vitro inhibition by Bacillus coagulans are illustrated in FIG. 3.
Inhibition by Bacillus coagulans was ascertained by placing on the plate approximately 1.5×10^6 colony forming units (CFU) in 10 μl of broth or buffer, plated directly in the center of the potato-dextrose plate, with one test locus per plate. The size of each test locus was approximately 8 mm in diameter and a minimum of three tests were performed for each inhibition assay. The negative control consisted of a […] volume of sterile saline solution, whereas the positive control consisted of a […] volume 2% Miconazole (1-[2-(2,4-dichlorophenyl)-2-[(2,4-dichlorophenyl)methoxy]methyl-[…] within an inert cream.
The plates were then incubated for approximately 18 hr at 30° C., at which time the zones of inhibition were measured. […]

The next assay deals with four species of Candida. Kind of assay: in vitro zone of inhibition assay on potato-dextrose plates, Candida. The protocol:
Each of the yeast pathogens and their ATCC accession numbers are illustrated in FIG. 4.
In the in vitro inhibition assay, potato-dextrose plates (DIFCO®, Detroit, Mich.) were prepared using standard procedures and were inoculated individually with a confluent bed about 1.7×10^6 of the four species of Candida. Inhibition by Bacillus coagulans was tested by placing on the plate about 1.5×10^6 colony forming units (CFU) in 10 μl of broth or buffer, plated directly in the center of the potato-dextrose plate with one test locus of about 8 mm in diameter per plate. A minimum of three tests were performed for each inhibition assay. The negative control consisted of a 10 μl volume of a sterile saline solution, whereas the positive control consisted of a 1 μl volume of Miconazole cream.
The plates were then incubated for approximately 18 hr at 30° C., at which time the zones of inhibition were measured. As designated herein, “excellent inhibition” means the zone was 10 mm or greater in diameter; and “good inhibition” means the zone was greater than 2 mm in diameter, but less than 10 mm in diameter.

Assay [2] deals with various opportunistic bacterial pathogens. Kind of assay: in vitro bacterial pathogen screen, zone of inhibition (DIFCO BACTROL Disk Set). The text has this:
The ability of Bacillus coagulans to inhibit various opportunistic bacterial pathogens was quantitatively ascertained by use of an in vitro assay. This assay is part of a standardized bacterial pathogen screen (developed by the U.S. Food and Drug Administration (FDA)) and is commercially available on solid support disks (DIFCO® BACTROL® Disk Set). To perform the assay, potato-dextrose plates (DIFCO®) were initially prepared using standard procedures. The plates were then individually inoculated with each of the bacteria (approximately 1.5×10^6 CFU) to be tested, so as to form a confluent bacterial bed.
Inhibition by Bacillus coagulans was subsequently ascertained by placing approximately 1.5×10^6 CFU of Bacillus coagulans in 10 μl of broth or buffer, directly in the center of the potato-dextrose plate, with one test locus being approximately 8 mm in diameter per plate. A minimum of three test loci were used for each assay. The negative control consisted of a 10 μl volume of a sterile saline solution, whereas the positive control consisted of a 10 μl volume of glutaraldehyde. The plates were then incubated for approximately about 18 hr at 30° C., at which time the zones of inhibition were measured. […]

Take `Clc1ccc(COC(Cn2ccnc2)c2ccc(Cl)cc2Cl)c(Cl)c1` (stereo not drawn) [positive control]: the “zone of inhibition diameter” value in assay [1] (10 ml volume 2% Miconazole in inert cream, mean average of three tests) was “approximately 8.5 mm”; in the assay on four species of Candida (1 μl volume of Miconazole cream, average of three tests) it was “approximately 8.7 mm”. The “inhibition grade (zone of inhibition)” value is on record as “good inhibition (the zone was greater than 2 mm in diameter, but less than 10 mm in diameter)” in assay [1] and “good inhibition (the zone was greater than 2 mm in diameter, but less than 10 mm in diameter)” in the assay on four species of Candida.
Consider `O=CCCCC=O` [glutaraldehyde], for which, in assay [2] (10 μl volume of glutaraldehyde, average of three tests), the “zone of inhibition diameter” value is “approximately 16.2 mm”. For the same compound, the “inhibition grade (zone of inhibition)” value in assay [2] is given as “excellent”.
